# pIC50: −log10 of the molar value.
# Experiments:
# HPK1 = HPK1 (Homo sapiens, UniProt Q92918); assay: Inhibitory effect against enzyme activity of HPK1 (lantha Screen, PKC substrate); format: biochemical; details: class symbols defined as IC50 ranges, read-out: Inhibition rate (%)
# Experimental: Example 130: Assay of Inhibitory Effect of Compound Against Enzyme Activity of HPK1
# The inhibitory effect of the compound against the enzyme activity of HPK1 was determined by using a lantha Screen method with PKC as a substrate. The process comprises the following specific steps: the HPK1 protein was incubated with the serially-diluted compound at 28° C. for 10 min followed by addition of fluoroescein-labeled PKC substrate and ATP to react for 90 min. After termination of the reaction, a Terbium-labeled antibody against phosphorylated PKC was added and incubated for 60 min. The energy transfer of Teribium and fluoroscein was monitored by detecting luminescence at 520 nm and 450 nm to quantify PKC as the level of phosphorylation of […]. Inhibition % and IC50 of the compound were calculated compared to the control group.
# hERG potassium channel = target: T1, hERG potassium channel (Homo sapiens, UniProt Q12809); assay: Inhibitory effect against hERG channel activity (manual patch clamp, HEK293 cells stably expressing hERG); format: cell-based; details: HEK293 cell line stably expressing hERG
# T1 construct: expressed in transfected cells; host or cells: HEK293
# Experimental: Example 131: Assay of Inhibitory Effect of Compound Against hERG Channel Activity
# The HEK293 cell line stably expressed by the hERG potassium channel was adopted for detection using manual patch clamp. Firstly, the HEK293 cell line stably expressed by the hERG potassium channel was separated and laid on a cover glass before the patch clamp detection test, and the test detection was carried out after culture for 18 h. Then a capillary glass tube was drawn into a recording electrode, and the recording electrode was contacted onto the cells under an inverted microscope to form a whole-cell recording mode. After necessary compensation and recording of the membrane capacitance and series resistance, current recording was performed according to the set current stimulation protocol. After the hERG current stabilized, administration was started and the current detected in compound-free extracellular fluid for each cell served as its own control group, and multiple cells were repeatedly tested independently. The current acted for each drug concentration and the current of the blank control were standardized, then the inhibition rate corresponding to each drug concentration was calculated, and finally the half-inhibition concentration IC50 value of each compound was calculated.
# T1 sequence (Q12809 whole entry): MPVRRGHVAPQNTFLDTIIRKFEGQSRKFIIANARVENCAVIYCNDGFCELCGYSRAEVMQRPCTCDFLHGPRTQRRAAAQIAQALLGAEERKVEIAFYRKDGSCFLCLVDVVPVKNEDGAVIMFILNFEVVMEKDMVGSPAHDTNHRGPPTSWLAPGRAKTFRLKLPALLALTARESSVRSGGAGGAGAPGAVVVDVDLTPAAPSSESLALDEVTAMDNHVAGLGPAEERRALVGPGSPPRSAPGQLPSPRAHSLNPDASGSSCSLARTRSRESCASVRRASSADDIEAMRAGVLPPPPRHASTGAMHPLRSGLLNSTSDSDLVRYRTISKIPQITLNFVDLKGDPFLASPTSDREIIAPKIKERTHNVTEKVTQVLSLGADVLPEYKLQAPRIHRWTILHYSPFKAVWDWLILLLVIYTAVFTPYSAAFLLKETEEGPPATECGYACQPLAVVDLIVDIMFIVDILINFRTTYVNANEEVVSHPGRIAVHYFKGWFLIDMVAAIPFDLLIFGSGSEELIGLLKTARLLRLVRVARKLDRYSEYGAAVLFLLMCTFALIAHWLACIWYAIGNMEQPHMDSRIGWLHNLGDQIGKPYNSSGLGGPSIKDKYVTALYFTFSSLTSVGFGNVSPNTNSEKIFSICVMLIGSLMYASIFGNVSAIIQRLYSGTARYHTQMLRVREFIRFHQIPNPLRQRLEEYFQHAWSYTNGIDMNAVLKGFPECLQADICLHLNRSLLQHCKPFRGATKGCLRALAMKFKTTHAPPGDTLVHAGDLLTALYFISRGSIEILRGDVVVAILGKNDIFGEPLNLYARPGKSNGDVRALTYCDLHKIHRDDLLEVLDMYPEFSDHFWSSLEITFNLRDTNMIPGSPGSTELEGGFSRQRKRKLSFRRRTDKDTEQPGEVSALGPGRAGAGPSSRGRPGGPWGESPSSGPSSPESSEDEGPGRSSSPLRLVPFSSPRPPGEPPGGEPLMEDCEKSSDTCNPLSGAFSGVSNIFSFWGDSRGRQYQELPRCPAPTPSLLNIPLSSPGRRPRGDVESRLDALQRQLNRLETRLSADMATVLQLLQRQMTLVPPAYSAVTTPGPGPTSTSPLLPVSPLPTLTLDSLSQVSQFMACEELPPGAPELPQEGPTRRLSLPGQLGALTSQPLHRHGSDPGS
# Sequence of HPK1 (Q92918 whole entry): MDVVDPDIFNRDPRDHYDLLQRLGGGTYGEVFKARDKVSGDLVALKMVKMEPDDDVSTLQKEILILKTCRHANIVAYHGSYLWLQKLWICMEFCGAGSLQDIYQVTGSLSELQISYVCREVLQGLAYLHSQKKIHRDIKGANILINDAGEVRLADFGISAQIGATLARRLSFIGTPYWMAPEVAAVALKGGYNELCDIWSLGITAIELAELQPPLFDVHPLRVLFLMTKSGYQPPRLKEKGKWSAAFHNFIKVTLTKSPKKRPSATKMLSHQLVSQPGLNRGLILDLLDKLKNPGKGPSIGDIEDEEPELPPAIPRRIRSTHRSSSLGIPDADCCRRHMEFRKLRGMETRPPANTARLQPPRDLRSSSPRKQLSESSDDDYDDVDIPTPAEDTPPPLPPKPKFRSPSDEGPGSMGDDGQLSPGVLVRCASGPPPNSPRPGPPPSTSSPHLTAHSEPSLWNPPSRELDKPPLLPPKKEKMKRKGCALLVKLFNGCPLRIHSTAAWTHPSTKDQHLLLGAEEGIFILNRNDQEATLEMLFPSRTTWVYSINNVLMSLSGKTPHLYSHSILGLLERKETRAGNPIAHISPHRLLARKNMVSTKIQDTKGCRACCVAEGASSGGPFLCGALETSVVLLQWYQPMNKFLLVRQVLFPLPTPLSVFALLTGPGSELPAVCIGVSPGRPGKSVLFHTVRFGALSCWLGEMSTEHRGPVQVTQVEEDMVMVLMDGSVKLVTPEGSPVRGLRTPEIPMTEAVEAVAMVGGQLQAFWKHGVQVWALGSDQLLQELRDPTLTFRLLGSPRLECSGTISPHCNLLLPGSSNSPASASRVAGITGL
pIC50 (HPK1),SMILES,pIC50 (hERG potassium channel)
≥ 8.00,Cc1ccncc1-c1cc2c(-c3ccc4c(c3)OCC3CN(C)CCN43)n[nH]c2cc1C#N (centres unmarked) [Compound 43],4.76
7.00 to 8.00,CN1CCN2c3ccc(-c4n[nH]c5cnc(-c6cccc(F)c6F)cc45)cc3OCC2C1 (centres unmarked) [Compound 67],4.29
7.00 to 8.00,COc1ccc(F)c(F)c1-c1cc2c(-c3ccc4c(c3)OCC3CN(C)CCN43)n[nH]c2cn1 (centres unmarked) [Compound 73],4.39
≥ 8.00,CN1CCN2c3ccc(-c4cnc5[nH]cc(-c6ccc(C(=O)N7CC(N(C)C)C7)cc6)c5n4)cc3OCC2C1 (centres unmarked) [Compound 112],4.45

# Source: US12686689B2, “HPK1 inhibitor, preparation method therefor and use thereof” (WIGEN BIOMEDICINE TECHNOLOGY (SHANGHAI) CO., LTD., priority 2020, dated 2026)
